Laboratory results published in patent publication US12234499B2, “Compositions, methods, systems and/or kits for detecting antimicrobial resistance in bacteria” (priority 2016, dated 2025).

Tests used:
Experiment in all cases: Growth of enteric bacteria in the presence of TEM (FIG. 1)
Format in all cases: cell-based
[1] = tested on: enteric bacteria expressing Class D carbapenemase
Protocol: (§1) Non-limiting embodiments of detection tests for enteric and non-fermenting bacteria, with various concentration ranges of one or more antibiotics, and various concentration ranges for one or more inhibitors are shown in FIG. 1-FIG. 24 and FIG. 31. These figures illustrate the concentration of the antibiotic being tested (in μg/ml) along the x-axis (not every concentration is tested in every figure), and the amount of growth of bacteria in the sample in the y-axis. The boxes illustrate the median, interquartile range, non-outlier minimum and maximum; with asterisks representing single outliers. Each figure has a panel for Class A, Class B, and Class D producing bacteria, as well as a panel for non-carbapenemase producing bacteria (NEG). In some embodiments, the detection tests described herein are not performed by imaging a change in cell morphology.
(§2) By way of example, FIG. 1 illustrates a test of various enteric bacteria grown in the presence of several concentrations of TEM.
(§3) In some embodiments, the detection tests can comprise a plurality of wells comprising enteric bacteria and TEM over a range of concentrations of about 12 μg/ml to about 512 μg/ml (FIG. 1).

[2] = tested on: enteric bacteria expressing Class A carbapenemase; conditions: Class A enteric bacterial strains
Protocol: as §1, §2, §3

[3] = tested on: non-carbapenemase producing (NEG) enteric bacteria; conditions: nearly all NEG enteric bacteria
Protocol: as §1, §2, §3

[4] = tested on: enteric bacteria expressing Class B carbapenemase
Protocol: as §1, §2, §3

## CO[C@@]1(NC(=O)C(C(=O)O)c2ccsc2)C(=O)N2[C@@H](C(=O)O)C(C)(C)S[C@@H]21 (stereo partly drawn) [TEM, disodium 6beta-(2-carboxy-2-thien-3-ylacetamido)-6alpha-methoxypenicillanate]
[1]; Class D enteric bacteria unaffected until this concentration
  concentration reached before growth is affected: 192 µg/mL
[1]; bacteria expressing Class D, read-out: TEM concentration at which bacteria are sensitive (elevated MIC)
  MIC: ≥ 128 µg/mL
[2]
  concentration at which nearly all strains tested are inhibited: 24 µg/mL
[3]
  sensitivity to TEM: sensitive to lowest concentration
[4]; Class B enteric bacteria, decrease in the average growth line
  concentration at which bacteria begin to show sensitivity: 48 µg/mL
[4]; Class B enterics
  concentration at which growth of most strains is inhibited: 384 µg/mL
